Experimental data reported in patent US20240425475A1, “COMPOUND BASED ON QUINAZOLINE-SUBSTITUTED GLUTARIMIDE SKELETON AND USE THEREOF” (GLUETACS THERAPEUTICS (SHANGHAI) CO., LTD., priority 2022, published 2024).

Experiments:
[1] = test system: Human diffuse large B-cell lymphoma cell line: TMD8; test: Half inhibitory concentration (IC50) against tumor cells, CCK-8 cell viability; assay type: cell-based; details: 96 h treatment
Protocol: (§1) The tumor cells used herein were cultured in a cell culture medium listed in table 2 at 37° C. in an incubator with 5% CO2. Prior to experimentation, all cells used were correctly identified by STR profiling, and tested negative for mycoplasma through routine screenings. [table] Determination of Half Inhibitory Concentration (IC50) of the Compounds Against Tumor Cells: IC50 values of the compounds of the present disclosure (including the compounds in Table 1, and compounds of examples 1-104) were measured using the Meilun Cell Counting Kit-8 kit from Dalian Meilun Biotech Co., Ltd. Assay details are as follows: tumor cells were seeded in a 96-well plate at a density listed in Table 3. After 24 h, 100 μL of the inoculated cells were treated with 0.5 μl of the compounds of the present disclosure (including the compounds in Table 1, and compounds of examples 1-104) at 10 different successively decreasing concentrations (starting at the highest concentration of […]; 5-fold serial dilutions). After the cells were treated with the compounds of the present disclosure for a period of time, cell viability was measured according to the instructions provided with the CCK-8 kit. DMSO served as the negative control, and corresponding commercial immunomodulatory drug Avadomide (CC-122) was used as the positive control, both of which treated the cells using the same protocol as that of the compounds of the present disclosure. The growth inhibition of the compounds of the present disclosure on cells was plotted by Prism Graphpad software, and the IC50 values of the compounds of the present disclosure were calculated therefrom. [table] We tested the activities of the compounds of the present invention (including the compounds in Table 1 and Examples 1-104 compounds) in tumor cells through a dose-dependent manner. The cells were treated with the compounds of the present invention at 10 different successively decreasing concentrations (starting at the highest concentration of 10 μM; 5-fold serial dilutions) for 72 h or 96 h, and then the cell viability determination was performed in accordance with CCK-8 reagent operating instructions.

[2] = target: human Cereblon WT GST-tagged protein (Homo sapiens (Human), UniProt Q96SW2); test: CRBN-binding affinity, CEREBLON BINDING kit (HTRF); details: HTRF inhibitory activity, binding to CRBN
Sequence of human Cereblon WT GST-tagged protein (Q96SW2 whole entry): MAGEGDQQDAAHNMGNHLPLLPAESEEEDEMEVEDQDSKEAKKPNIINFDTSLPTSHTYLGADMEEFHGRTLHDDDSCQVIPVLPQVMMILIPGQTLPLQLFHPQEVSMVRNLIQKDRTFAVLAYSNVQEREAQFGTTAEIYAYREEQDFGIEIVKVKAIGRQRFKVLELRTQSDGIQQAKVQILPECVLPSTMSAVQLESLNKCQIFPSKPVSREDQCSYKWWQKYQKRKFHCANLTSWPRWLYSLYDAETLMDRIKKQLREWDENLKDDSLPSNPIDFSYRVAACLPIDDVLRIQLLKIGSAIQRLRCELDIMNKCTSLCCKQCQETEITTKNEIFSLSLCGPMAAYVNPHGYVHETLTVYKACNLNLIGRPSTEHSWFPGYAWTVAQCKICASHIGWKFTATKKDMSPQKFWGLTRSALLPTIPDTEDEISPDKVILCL
From the text: Determination of CRBN-Binding Affinity of Compounds
The CEREBLON BINDING kits (specification: 10,000 tests; product number: Catalog #64BDCRBNPEH; CISBIO company) was used to determine the CRBN binding ability of the compounds to be tested through a HTRF method (homogeneous time-resolved fluorescence). The specific methods are as follows: • 1. According to the instructions of the CEREBLON BINDING kits, the compounds to be tested of the present invention and lenalidomide were serially diluted using diluent #9 (1×) solution to obtain a final concentration of 2 μM for both the tested compounds and lenalidomide solution. • 2.2.5 μL of the above 2 μM of the tested compounds and lenalidomide solution, as well as the same volume of diluent #9 (1×) solution (solvent control group, Std0) were taken and added to each well of a 96-well plate, respectively. Then, 2.5 μL of (human Cereblon WT GST-tagged protein) solution was added to each well. Finally, 5 μL of the uniformly mixed thalidomide-Red reagent and GST Eu antibody working solution were added to each of the above wells. The final concentration of the tested compounds and lenalidomide in each well is 0.5 μM. • 3. The blank control wells were sequentially added with 2.5 μL of diluent #9 (1×) solution, 2.5 μL of PROTAC binding buffer, and 5 μL of uniformly mixed thalidomide-Red reagent and GST Eu antibody working solution. • 4. After sealing and incubating the solutions in the above wells at room temperature for 3 hours, the absorbance values at emission wavelengths of 620 nm and 665 nm were detected by the HTRF method using a Spark microplate reader (V3.1 SP1).
The corresponding CRBN binding inhibition rate was calculated using the following method: […]
Note: OD 665 nmcompound is the absorbance value of each well of the compounds to be tested of the present disclosure at an emission wavelength of 665 nm.
OD 620 nmcompound is the absorbance value of each well of the compounds to be tested of the present disclosure at an emission wavelength of 620 nm.
OD 665 nmcontrol is the absorbance value of the blank control well at an emission wavelength of 665 nm.
OD 620 nmcontrol is the absorbance value of the blank control well at an emission wavelength of 620 nm.
OD 665 nmstd0 is the absorbance value of the solvent control well at an emission wavelength of 665 nm.
OD 620 nmstd0 is the absorbance value of the solvent control well at an emission wavelength of 620 nm.

[3] = test system: Human multiple myeloma cells: MM.1S; test: Half inhibitory concentration (IC50) against tumor cells, CCK-8 cell viability; assay type: cell-based; details: MM1.S, MM.1S cells, 72 h treatment
Protocol: as §1

[4] = test system: Human colon cancer cell: SW620; test: as above; assay type: cell-based; details: SW-620, 96 h treatment
Protocol: as §1

[5] = test system: Human dexamethasone-resistant multiple myeloma cell line: MM.1R; test: as above; assay type: cell-based; details: MM.1R cells, 72 h treatment
Protocol: as §1

Structure (SMILES) | IC50 [1] | IC50 [2] | IC50 [3] | IC50 [4] | IC50 [5]
Cc1nc2cccc(NCCCCCNC3C4CC5CC(C4)CC3C5)c2c(=O)n1C1CCC(=O)NC1=O (stereo not shown) [GT-02393, 3-(5-((5-(((1r,3r,5r,7r)-adamantan-2-yl)amino)pentyl)amino)-2-methyl-4-oxoquinazolin-3(4H)-yl)piperidine-2,6-dione] | 458 nM | 420 nM | – | – | –
Cc1nc2cccc(NCCCCCNC34CC5CC(CC3C5)C4)c2c(=O)n1C1CCC(=O)NC1=O [GT-02496, 3-(5-((5-(((2R,3as,5S,6as)-hexahydro-2,5-methanopentalen-3a(1H)-yl)amino)pentyl)amino)-2-methyl-4-oxoquinazolin-3(4H)-yl)piperidine-2,6-dione] | 474 nM | 420 nM | – | – | –
Cc1nc2cccc(NCCCCCCCO)c2c(=O)n1C1CCC(=O)NC1=O (stereo not shown) [GT-02598, 3-(5-((7-hydroxyheptyl)amino)-2-methyl-4-oxoquinazolin-3(4H)-yl)piperidine-2,6-dione] | – | 3660 nM | 17.2 nM | – | –
Cc1nc2cccc(NCCCCCCCN3CC4CC4C3)c2c(=O)n1C1CCC(=O)NC1=O (stereo not shown) [GT-02772, 3-(5-((7-(3-azabicyclo[3.1.0]hexan-3-yl)heptyl)amino)-2-methyl-4-oxoquinazolin-3(4H)-yl)piperidine-2,6-dione] | 448 nM | – | – | – | –
Cc1nc2cccc(CCCCCCCCNC34CC5CC(CC(C5)C3)C4)c2c(=O)n1C1CCC(=O)NC1=O (stereo not shown) [GT-02797, 3-(5-(8-(((1s,3s)-adamantan-1-yl)amino)octyl)-2-methyl-4-oxoquinazolin-3(4H)-yl)piperidine-2,6-dione] | 312 nM | 180 nM | – | – | –
Cc1nc2cccc(NCCCCCNC(=O)C34CC5CC(CC(C5)C3)C4)c2c(=O)n1C1CCC(=O)NC1=O (stereo not shown) [GT-02323, (3r,5r,7r)-N-(5-((3-(2,6-dioxopiperidin-3-yl)-2-methyl-4-oxo-3,4-dihydroquinazolin-5-yl)amino)pentyl)adamantane-1-carboxamide] | 652 nM | – | – | – | –
Cc1nc2cccc(SCCN3CCN(c4ccc(C#N)cc4F)CC3)c2c(=O)n1C1CCC(=O)NC1=O (stereo not shown) [GT-03314, 4-(4-(2-((3-(2,6-dioxopiperidin-3-yl)-2-methyl-4-oxo-3,4-dihydroquinazolin-5-yl)thio)ethyl)piperazin-1-yl)-3-fluorobenzonitrile] | – | – | – | 709 nM | –
Cc1nc2cccc(NCCCCCCCN3CCC4(CC3)CC(F)(F)C4)c2c(=O)n1C1CCC(=O)NC1=O (stereo not shown) [GT-02773, 3-(5-((7-(2,2-difluoro-7-azaspiro[3.5]nonan-7-yl)heptyl)amino)-2-methyl-4-oxoquinazolin-3(4H)-yl)piperidine-2,6-dione] | 440 nM | 2800 nM | – | – | –
Cc1cc2cccc(NCCN3CCN(C(c4ccc(F)cc4)c4ccc(F)cc4)CC3)c2c(=O)n1C1CCC(=O)NC1=O (stereo not shown) [GT-03388, 3-(8-((2-(4-(bis(4-fluorophenyl)methyl)piperazin-1-yl)ethyl)amino)-3-methyl-1-oxoisoquinolin-2(1H)-yl)piperidine-2,6-dione] | – | – | – | – | 352 nM
Cc1nc2cccc(NCCCCCCNC34CC5CC(CC3C5)C4)c2c(=O)n1C1CCC(=O)NC1=O [GT-02494, 3-(5-((6-(((2R,3as,5S,6as)-hexahydro-2,5-methanopentalen-3a(1H)-yl)amino)hexyl)amino)-2-methyl-4-oxoquinazolin-3(4H)-yl)piperidine-2,6-dione] | 184 nM | 460 nM | – | – | –
Cc1nc2cccc(NCCCCCCCNC(C)C34CC5CC(CC(C5)C3)C4)c2c(=O)n1C1CCC(=O)NC1=O (stereo not shown) [GT-02768, 3-(5-((7-((1-((3r,5r,7r)-adamantan-1-yl)ethyl)amino)heptyl)amino)-2-methyl-4-oxoquinazolin-3(4H)-yl)piperidine-2,6-dione] | 294 nM | 680 nM | 98.1 nM | – | –
Cc1nc2cccc(NCCOCCOCCNC34CC5CC(CC(C5)C3)C4)c2c(=O)n1C1CCC(=O)NC1=O (stereo not shown) [GT-02279, 3-(5-((2-(2-(2-(((1s,3s)-adamantan-1-yl)amino)ethoxy)ethoxy)ethyl)amino)-2-methyl-4-oxoquinazolin-3(4H)-yl)piperidine-2,6-dione] | 438 nM | – | – | – | –
Cc1nc2cccc(SCCN3CCN(CCC45CC6CC(CC(C6)C4)C5)CC3)c2c(=O)n1C1CCC(=O)NC1=O (stereo not shown) [GT-03305, 3-(5-((2-(4-(2-((3r,5r,7r)-adamantan-1-yl)ethyl)piperazin-1-yl)ethyl)thio)-2-methyl-4-oxoquinazolin-3(4H)-yl)piperidine-2,6-dione] | – | 1200 nM | – | 717 nM | –

The next lines start with the values.

IC50 [1] | IC50 [2] | IC50 [3] | IC50 [4] | IC50 [5] | Structure (SMILES)
409 nM | – | – | – | – | Cc1nc2cccc(NCCCCCNC34CC5CC(CC(C5)C3)C4)c2c(=O)n1C1CCC(=O)NC1=O (stereo not shown) [GT-02280, 3-(5-((5-(((3s,5s,7s)-adamantan-1-yl)amino)pentyl)amino)-2-methyl-4-oxoquinazolin-3(4H)-yl)piperidine-2,6-dione]
8.2 nM | 950 nM | 3.3 nM | – | – | Cc1nc2cccc(NCCCCCCCNC34CC5CC(CC(C5)C3)C4)c2c(=O)n1C1CCC(=O)NC1=O (stereo not shown) [GT-02237, 3-(5-((7-(((1s,3s)-adamantan-1-yl)amino)heptyl)amino)-2-methyl-4-oxoquinazolin-3(4H)-yl)piperidine-2,6-dione]
21.4 nM | 320 nM | – | – | 9.8 nM | Cc1nc2cccc(NCCCCCCCNC34CC5CC(CC3C5)C4)c2c(=O)n1C1CCC(=O)NC1=O (stereo not shown) [GT-02495, 3-(5-((7-(((3as,6as)-hexahydro-2,5-methanopentalen-3a(1H)-yl)amino)heptyl)amino)-2-methyl-4-oxoquinazolin-3(4H)-yl)piperidine-2,6-dione]
554 nM | – | – | – | – | Cc1nc2cccc(NCCCCNC34CC5CC(CC(C5)C3)C4)c2c(=O)n1C1CCC(=O)NC1=O (stereo not shown) [GT-01818, 3-(5-((4-(((3s,5s,7s)-adamantan-1-yl)amino)butyl)amino)-2-methyl-4-oxoquinazolin-3(4H)-yl)piperidine-2,6-dione]
102 nM | 2610 nM | – | – | – | Cc1nc2cccc(NCCCCCCCNC34CCC(F)(CC3)CC4)c2c(=O)n1C1CCC(=O)NC1=O (stereo not shown) [GT-02774, 3-(5-((7-((4-fluorobicyclo[2.2.2]octan-1-yl)amino)heptyl)amino)-2-methyl-4-oxoquinazolin-3(4H)-yl)piperidine-2,6-dione]
309 nM | 1050 nM | 69.9 nM | – | – | Cc1nc2cccc(NCCCCCCCN[C@@]34CC5CC(C)(C[C@@](C)(C5)C3)C4)c2c(=O)n1C1CCC(=O)NC1=O (stereo partly drawn) [GT-02767, 3-(5-((7-(((1SR,3RS,5SR,7r)-3,5-dimethyladamantan-1-yl)amino)heptyl)amino)-2-methyl-4-oxoquinazolin-3(4H)-yl)piperidine-2,6-dione]
146 nM | – | 39.5 nM | – | – | Cc1nc2cccc(NCCCCCCNC34CC5CC(CC(C5)C3)C4)c2c(=O)n1C1CCC(=O)NC1=O (stereo not shown) [GT-02235, 3-(5-((6-(((3s,5s,7s)-adamantan-1-yl)amino)hexyl)amino)-2-methyl-4-oxoquinazolin-3(4H)-yl)piperidine-2,6-dione]
